Experimental data published in ChEMBL document CHEMBL4627246, “Pyroglutamide-Based P2X7 Receptor Antagonists Targeting Inflammatory Bowel Disease” (J Med Chem, 2020).

Tests used:
Format in all cases: cell-based
SF-268 = experiment: Cytotoxicity against human SF268 cells assessed as effect on cell growth at 10 uM incubated for 48 hrs by sulforhodamine B assay; conditions: sf-268, 48 h
NCI/ADR-RES = experiment: Cytotoxicity against human NCI/ADR-RES cells assessed as effect on cell growth at 10 uM incubated for 48 hrs by sulforhodamine B assay
A498 = experiment: Cytotoxicity against human A498 cells assessed as effect on cell growth at 10 uM incubated for 48 hrs by sulforhodamine B assay; conditions: a498, 48 h
HOP-62 = experiment: Cytotoxicity against human HOP62 cells assessed as effect on cell growth at 10 uM incubated for 48 hrs by sulforhodamine B assay; conditions: hop-62, 48 h
LOX IMVI = experiment: Cytotoxicity against human LOXIMVI cells assessed as effect on cell growth at 10 uM incubated for 48 hrs by sulforhodamine B assay
SW-620 = experiment: Cytotoxicity against human SW620 cells assessed as effect on cell growth at 10 uM incubated for 48 hrs by sulforhodamine B assay; conditions: sw-620, 48 h
OVCAR-3 = experiment: Cytotoxicity against human OVCAR3 cells assessed as effect on cell growth at 10 uM incubated for 48 hrs by sulforhodamine B assay; conditions: ovcar-3, 48 h
A549 = experiment: Cytotoxicity against human A549/ATCC cells assessed as effect on cell growth at 10 uM incubated for 48 hrs by sulforhodamine B assay; conditions: a549, 48 h
MOLT-4 = experiment: Cytotoxicity against human MOLT4 cells assessed as effect on cell growth at 10 uM incubated for 48 hrs by sulforhodamine B assay; conditions: molt-4, 48 h
UACC-257 = experiment: Cytotoxicity against human UACC257 cells assessed as effect on cell growth at 10 uM incubated for 48 hrs by sulforhodamine B assay; conditions: uacc-257, 48 h
HT-29 = experiment: Cytotoxicity against human HT-29 cells assessed as effect on cell growth at 10 uM incubated for 48 hrs by sulforhodamine B assay; conditions: ht-29, 48 h
OVCAR-4 = experiment: Cytotoxicity against human OVCAR4 cells assessed as effect on cell growth at 10 uM incubated for 48 hrs by sulforhodamine B assay; conditions: ovcar-4, 48 h
CCRF-CEM = experiment: Cytotoxicity against human CCRF-CEM cells assessed as effect on cell growth at 10 uM incubated for 48 hrs by sulforhodamine B assay
SF-539 = experiment: Cytotoxicity against human SF539 cells assessed as effect on cell growth at 10 uM incubated for 48 hrs by sulforhodamine B assay; conditions: sf-539, 48 h
SK-MEL-28 = experiment: Cytotoxicity against human SK-MEL-28 cells assessed as effect on cell growth at 10 uM incubated for 48 hrs by sulforhodamine B assay; conditions: sk-mel-28, 48 h
SK-OV-3 = experiment: Cytotoxicity against human SKOV3 cells assessed as effect on cell growth at 10 uM incubated for 48 hrs by sulforhodamine B assay; conditions: sk-ov-3, 48 h
HCT-116 = experiment: Cytotoxicity against human HCT116 cells assessed as effect on cell growth at 10 uM incubated for 48 hrs by sulforhodamine B assay; conditions: hct-116, 48 h
SN12C = experiment: Cytotoxicity against human SN12C cells assessed as effect on cell growth at 10 uM incubated for 48 hrs by sulforhodamine B assay
RPMI-8226 = experiment: Cytotoxicity against human RPMI8226 cells assessed as effect on cell growth at 10 uM incubated for 48 hrs by sulforhodamine B assay; conditions: rpmi-8226, 48 h
K562 = experiment: Cytotoxicity against human K562 cells assessed as effect on cell growth at 10 uM incubated for 48 hrs by sulforhodamine B assay; conditions: k562, 48 h

Measured: Activity

CN1C(=O)CC[C@H]1C(=O)NCc1cc(C(F)(F)F)ccc1Cl
Non-Toxic: all assays above

COc1cc(CN/C=C2\C[C@@H](C(=O)NCc3ccc(Cl)cc3Cl)NC2=O)cc(OC)c1OC
Non-Toxic: all assays above

CN(C)/C=C1\C[C@@H](C(=O)NCc2ccc(Cl)cc2Cl)N(c2cccs2)C1=O
Non-Toxic: all assays above

O=C(NCc1ccc(Cl)cc1Cl)[C@@H]1CCC(=O)N1Cc1ccc(Cl)cc1
Non-Toxic: all assays above

COc1ccccc1CN1C(=O)[C@@H]2C/C(=C\N(C)C)C(=O)N2C1N(C)C (stereo not given in full)
Non-Toxic: all assays above

CN(Cc1ccccc1)C(=O)[C@@H]1CCC(=O)N1Cc1ccc(Cl)cc1Cl
Non-Toxic: all assays above

COc1ccc(N2C(=O)CC[C@H]2C(=O)NCc2ccc(Cl)cc2Cl)cc1
Non-Toxic: all assays above

O=C(NCc1ccc(Cl)cc1Cl)[C@@H]1CCC(=O)N1C(c1ccc(Cl)cc1)c1ccc(Cl)cc1
Non-Toxic: all assays above

O=C(NCc1ccccc1Cl)[C@@H]1CCC(=O)N1Cc1ccccc1
Non-Toxic: all assays above

O=C(NCc1ccc(Cl)cc1Cl)[C@@H]1COC(=O)N1c1cccs1
Non-Toxic: all assays above

COc1ccc(CN2C(=O)[C@@H]3C/C(=C\N(C)C)C(=O)N3C2N(C)C)c(OC)c1 (stereo not given in full)
Non-Toxic: all assays above

COc1ccc(N2C(=O)[C@@H]3C/C(=C\N(C)C)C(=O)N3C2N(C)C)cc1 (stereo not given in full)
Non-Toxic: all assays above

O=C(NCc1ccccc1)[C@@H]1CCC(=O)N1Cc1ccc(Cl)cc1Cl
Non-Toxic: all assays above

Cc1ccc(NC(=O)[C@@H]2CCC(=O)N2c2ccccc2)cc1
Non-Toxic: all assays above
